Like-named read-outs stand apart in the source and are kept apart here.
Key:
[1] = target: unphosphorylated VEGF-R2Δ50 (FLVK) (Homo sapiens, UniProt P35968, DEL940-989/E990V); assay: VEGF-R2 coupled spectrophotometric assay, unphosphorylated VEGF-R2Δ50 (FLVK); details: for Ki: FLVK Ki, Table 1; for inhibition at 0.05 µM: read-out: FLVK % inhibition
[2] = Determination of inhibitor concentration in mouse plasma after intraperitoneal and oral dosing; format: in vivo; details: for plasma half-life (T1/2) / AUClast / AUC(0-t) / Cmax: vehicle PEG400:H2O pH 2.3 30:70; for AUC(0-t) / concentration at 7 h: female; for concentration at 7 h: vehicle PEG400:H2O pH 2.3 30:70, read-out: Cmin (7 hr conc.)
Description: Blood collection was via ocular bleed at 0.5, 1, 4 hr with the final time point, 7 hour, via intracardiac puncture. The blood was centrifuged to collect plasma, which was then stored at −80° C. until analysis. Samples were prepared for analysis using an internal standard and sodium hydroxide. After vortexing, ethyl acetate was added and mixed for 15-20 minutes at ambient temperature. […] The samples were then analyzed via HPLC or LC-MS. Compound levels were quantitated by generating a standard curve of known compound concentration in mouse plasma.

[3] = system: human umbilical vein endothelial cells (HUVEC); assay: HUVEC proliferation assay (VEGF-stimulated, MTT); format: cell-based; details: Homo sapiens, HUVEC, + albumin; read-out: HUVEC + albumin IC50

Sequence of unphosphorylated VEGF-R2Δ50 (FLVK) (P35968 with tags, fused parts or gaps DEL940-989/E990V limits assumed): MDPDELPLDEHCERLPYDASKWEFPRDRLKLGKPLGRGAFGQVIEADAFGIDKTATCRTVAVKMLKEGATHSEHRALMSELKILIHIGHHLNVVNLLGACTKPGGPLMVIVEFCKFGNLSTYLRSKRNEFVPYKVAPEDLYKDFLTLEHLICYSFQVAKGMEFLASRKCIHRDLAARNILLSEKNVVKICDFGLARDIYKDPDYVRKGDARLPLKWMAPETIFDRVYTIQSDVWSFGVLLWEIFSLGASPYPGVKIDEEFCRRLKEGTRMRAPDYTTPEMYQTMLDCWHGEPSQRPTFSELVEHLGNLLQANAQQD

## COc1cc(-c2ccc3c(-c4cc5ccccc5[nH]4)n[nH]c3c2)ccc1O [Example 2(d), 3-(1H-Indol-2-yl)-6-(3-methoxy-4-hydroxy-phenyl)-1H-indazole]
[1]
  Ki: 3.7 nM

## Oc1ccc(-c2ccc3c(-c4cc5ccccc5o4)n[nH]c3c2)cc1OCc1ccccc1 [Example 2(e), 3-(Benzofuran-2-yl)-6-(3-benzyloxy-4-hydroxy-phenyl)-1H-indazole]
[1]
  Ki: 40 nM

## Cc1cnc(C(=O)Nc2cccc(Oc3ccc4c(/C=C/c5ccccc5)n[nH]c4c3)c2)s1 [Example 5(a), 5-Methyl-thiazole-2-carboxylic Acid {3-(3-Styryl-1H-indazol-6-yloxy)-phenyl]-amide]
[1]
  Ki: 0.03 nM

## COCOc1ccc(Oc2ccc3c(/C=C/c4ccccc4)n[nH]c3c2)cc1 [Example 8(b), 3-(E-Styryl)-6-[4-(methoxymethoxy)phenoxy]-1H-indazole]
[1]
  Ki: 72 nM

## Oc1ccc(Oc2ccc3c(/C=C/c4ccccc4)n[nH]c3c2)cc1 [Example 9(b), 3-(E-Styryl)-6-[4-hydroxyphenoxy]-1H-indazole]
[1]
  Ki: 24 nM

## CN(c1cccc(NC(=O)OCc2ccccc2)c1)c1ccc2c(/C=C/c3ccccc3)n[nH]c2c1 [Example 12(c), {3-[Methyl-(3-styryl-1H-indazol-6-yl)-amino]-phenyl}-carbamic Acid Benzyl Ester]
[1]
  Ki: 1.6 nM

## CN(c1ccccc1)c1ccc2c(/C=C/c3ccccc3)n[nH]c2c1 [Example 14, Methyl-phenyl-(3-styryl-1H-indazol-6-yl)-amine]
[1]
  Ki: 15 nM

## CN(c1cccc(NC(=O)c2cccc(C(F)(F)F)c2)c1)c1ccc2c(/C=C/c3ccc4c(c3)OCO4)n[nH]c2c1 [Example 16(d), N-(3-{[3-(2-Benzo[1,3]dioxol-5-yl-vinyl)-1H-indazol-6-yl]-methyl-amino}-phenyl)-3-trifluoromethyl-benzamide]
[1]
  Ki: 0.43 nM

## CC(=O)c1cccc(C(=O)Nc2cccc(N(C)c3ccc4c(/C=C/c5ccc6c(c5)OCO6)n[nH]c4c3)c2)c1 [Example 16(e), 3-Acetyl-N-(3-{[3-(2-benzo[1,3]dioxol-5-yl-vinyl)-1H-indazol-6-yl]-methyl-amino}-phenyl)-benzamide]
[1]
  Ki: 1.3 nM

## Nc1cccc(C(=O)c2ccc3c(/C=C/c4ccccc4)n[nH]c3c2)c1 [Example 18, (3-Amino-phenyl)-(3-styryl-1H-indazol-6-yl)-methanone]
[1]
  Ki: 12.5 nM

## O=C(c1cccc(NC(=O)c2cc(Cl)ccn2)c1)c1ccc2c(/C=C/c3ccccc3)n[nH]c2c1 [Example 19(n), 6-[3-(4-Chloropyridin-2-ylcarboxamido)benzoyl]-3-E-styryl-1H-indazole]
[1]
  Ki: 0.54 nM

## CNC(C(=O)Nc1cccc(C(=O)c2ccc3c(/C=C/c4ccccc4)n[nH]c3c2)c1)c1ccccc1 (centres unmarked) [Example 19(p), 6-[3-(2-Methylamino-2-phenylacetamido)benzoyl]-3-E-styryl-1H-indazole]
[1]
  Ki: 1.5 nM

## C=C(c1cccc(N)c1)c1ccc2c(/C=C/c3ccccc3)n[nH]c2c1 [Example 21, 6-(1-(3-Aminophenyl)-vinyl)-3-styryl-1H-indazole]
[1]
  Ki: 4.6 nM

## C=C(c1cccc(NC(=O)OCc2ccccc2)c1)c1ccc2c(/C=C/c3ccccc3)n[nH]c2c1 [Example 22(c)]
[1]
  Ki: 0.64 nM

## O=C(Nc1cccc(Oc2ccc3c(/C=C/c4ccccc4)n[nH]c3c2)c1)c1cccc2[nH]ccc12 [Example 30(d), 6-[3-(indol-4-ylcarboxamido)phenoxy]-3-E-stryrylindazole]
[1]
  Ki: 0.37 nM

## CCn1nc(C)cc1C(=O)Nc1cccc(Oc2ccc3c(/C=C/c4ccccc4)n[nH]c3c2)c1 [Example 30(e), 6-[3-((1-Ethyl-3-methyl-1H-pyrazol-5-yl)carboxamido)phenoxy]-3-E-stryrylindazole]
[1]
  Ki: 0.37 nM

## Cc1cc(C(=O)Nc2cccc(Oc3ccc4c(/C=C/c5ccccn5)n[nH]c4c3)c2)nn1C [Example 31(b), 6-[3-((1,5-Dimethyl-1H-pyrazol-3-yl)carboxamido)phenoxy]-3-E-[2-(pyridin-2-yl)ethenyl]-1H-indazole]
[2]; IP, 25 mg/kg
  plasma half-life (T1/2): 1.7 h
  AUC(0-t): > 7040 ng·h/mL
  concentration at 7 h: 177 ng/mL
[2]; PO, 50 mg/kg
  AUClast: 2071 ng·h/mL
  plasma half-life (T1/2): 1.0 h
  concentration at 7 h: 15 ng/mL
[1]
  Ki: < 0.1 nM

## O=C(Nc1cccc(Oc2ccc3c(/C=C/c4c[nH]cn4)n[nH]c3c2)c1)c1ccccc1 [Example 32(a), 6-[3-Benzamidophenoxy]-3-E-[2-(1H-imidazol-4-yl)ethenyl]-1H-indazole]
[2]; PO, 50 mg/kg
  AUClast: 4190 ng·h/mL
  concentration at 7 h: 40 ng/mL
[2]; IP, 25 mg/kg
  AUC(0-t): > 20600 ng·h/mL
  concentration at 7 h: 1270 ng/mL
[2]; PO, 25 mg/kg
  AUC(0-t): 490 ng·h/mL
  concentration at 7 h: 18 ng/mL
[1]
  Ki: < 0.1 nM

## CCn1nc(C)cc1C(=O)Nc1cccc(Oc2ccc3c(/C=C/c4c[nH]cn4)n[nH]c3c2)c1 [Example 32(b), 6-[3-((1-Ethyl-3-methyl-1H-pyrazol-5-yl)carboxamido)phenoxy]-3-E-[2-(1H-imidazol-4-yl)ethenyl]-1H-indazole]
[1]
  Ki: 0.08 nM

## CCn1nc(C)cc1C(=O)Nc1cccc(Oc2ccc3c(/C=C/c4c[nH]c(C)n4)n[nH]c3c2)c1 [Example 32(c), 6-[3-((1-Ethyl-3-methyl-1H-pyrazol-5-yl)carboxamido)phenoxy]-3-E-[2-(2-methylimidazol-4-yl)ethenyl]-1H-indazole]
[2]; PO, 25 mg/kg
  AUClast: 388 ng·h/mL
  Cmax: 161 ng/mL
  plasma half-life (T1/2): 2.4 h
  concentration at 7 h: 10 ng/mL
[1]
  Ki: 0.27 nM

## O=C(NOCc1ccccc1)c1ccccc1Sc1ccc2c(/C=C/c3ccccn3)n[nH]c2c1 [Example 35(i), 6-[2-(Benzyloxycarbamoyl)phenylsulfanyl]-3-E-[2-(pyridin-2-yl)ethenyl]-1H-indazole]
[3]
  IC50: 4.7 nM
[1]
  inhibition at 0.05 µM: 100%

## NNC(=O)c1ccccc1Sc1ccc2c(/C=C/c3ccccn3)n[nH]c2c1 [Example 35(ii), 6-[2-(Aminocarbamoyl)phenylsulfanyl]-3-E-[2-(pyridin-2-yl)ethenyl]-1H-indazole]
[1]
  inhibition at 0.05 µM: 44%

## Nc1ccc(CNC(=O)c2ccccc2Sc2ccc3c(/C=C/c4ccccn4)n[nH]c3c2)cc1 [Example 35(l)]
[1]
  inhibition at 0.05 µM: 90%

## O=C(NNC(=O)c1ccccc1Sc1ccc2c(/C=C/c3ccccn3)n[nH]c2c1)c1cccs1 [Example 35(m), 6-[2-((Thien-2-ylhydrazido)carbonyl)phenylsulfanyl]-3-E-[2-(pyridin-2-yl)ethenyl]-1H-indazole]
[2]; IP, 25 mg/kg
  AUClast: 226 ng·h/mL
  plasma half-life (T1/2): 4.0 h
  concentration at 7 h: 17 ng/mL
[2]; PO, 25 mg/kg
  AUClast: 10 ng·h/mL
  Cmax: 7 ng/mL
  concentration at 7 h: 0 ng/mL
[1]
  Ki: 0.04 nM

## O=C(c1cccc(NC(=O)C2CC2)c1)c1ccc2c(/C=C/c3ccccn3)n[nH]c2c1 [Example 41(k), 6-[3-(Cyclopropylcarboxanido)benzoyl]-3-E-[2-(pyridin-2-yl)ethenyl]-1H-indazole]
[1]
  Ki: 2.95 nM

## CC(C)(C)c1ccc(C(=O)Nc2cccc(C(=O)c3ccc4c(/C=C/c5ccccn5)n[nH]c4c3)c2)cc1 [Example 41(s), 6-[3-(4-t-Butylbenzanido)benzoyl]-3-E-[2-(pyridin-2-yl)ethenyl]-1H-indazole]
[1]
  Ki: 0.23 nM

## Cc1nc(/C=C/c2n[nH]c3cc(C(=O)c4cccc(NC(=O)c5ccccc5)c4)ccc23)cs1 [Example 42(c), 6-(3-Benzanidobenzoyl)-3-E-[2-(2-methylthiazol-4-yl)ethenyl]-1H-indazole]
[3]
  IC50: 1 to 3 nM
[1]
  inhibition at 0.05 µM: 95%

## Cc1cc(C(=O)Nc2cc(Nc3ccc4c(/C=C/c5ccccn5)n[nH]c4c3)c(F)cc2C)n(C)n1 [Example 48(b), 6N-(5-((1,3-Dimethyl-1H-pyrazol-5-yl)carboxanddo)-2-fluoro-4-methylphenyl)aminol-3-E-[2-(pyridin-2-yl)ethenyl]-1H-indazole]
[3]
  IC50: ~8 nM
[2]; PO, 25 mg/kg
  AUClast: 2191 ng·h/mL
  plasma half-life (T1/2): 4 h
  concentration at 7 h: 136 ng/mL

## Cc1cc(C(=O)Nc2cc(Nc3ccc4c(/C=C/c5ccccn5)n[nH]c4c3)ccc2C)n(C)n1 [Example 49(b), 6-[N-(3-((1,3-Dimethyl-1H-pyrazol-5-yl)carboxamido)-4-methylphenyl)amino]-3-E-[2-(pyridin-2-yl)ethenyl]-1H-indazole]
[3]
  IC50: ~10 nM
[2]; PO, 25 mg/kg
  AUClast: 33750 ng·h/mL
  Cmax: 5000 ng/mL
  concentration at 7 h: 5000 ng/mL
